Results from US5234907A, “Synthetic vasoactive intestinal peptide analogs” (Hoffmann-La Roche Inc., priority 1991, dated 1993).
*1 amine or outer side, *2 acyl side, *3 side chain or, on linkers, in order; H or OH if unused. [ ]: non-standard residue; d: D form. The star is where a group is joined. Cys(Acm) = CC(=O)NCSC[C@H](N[*:1])C(=O)[*:2]; Phe(4-NH2) = Nc1ccc(C[C@H](N)C(=O)O)cc1; Phe(4-F) = N[C@@H](Cc1ccc(F)cc1)C(=O)O; NMeA = CN[C@@H](C)C(=O)O; Nle = CCCC[C@H](N)C(=O)O; Orn = NCCC[C@H](N)C(=O)O; Acm = CC(=O)NC*

Columns and labels:
guinea pigs = assay: In vivo bronchodilator activity by tracheal instillation against histamine-induced bronchoconstriction; set-up: species or system guinea pig; details: 100 μl, anesthetized male Hartley guinea pigs, histamine challenge 50 μg/kg i.v., inhibition of tracheal pressure increase
Method: The in vivo bronchodilator activity of VIP analogs in guinea pigs was assessed by the tracheal instillation route of administration. This technique utilized male guinea pigs (Hartley strain, Charles River) weighing 400-600 g. Animals were anesthetized with urethane (2 g/kg) intraperitoneally and a polyethylene cannula was inserted into the jugular vein for intravenous drug administration.
The animals were tracheotomized and dosing solutions of distilled water or test compound dissolved in distilled water were administered into the trachea, approximately three-quarter the distance to the carina with a pipette. The concentration of the dosing solution was adjusted to deliver a constant volume of 100 μl. The animals were placed supine for one minute to aid drug delivery to the lung. One minute later, spontaneous breathing was arrested with succinylcholine chloride (1.2 mg/kg) administered intravenously, and the animals were ventilized with a Harvard Model 680 small animal respirator set at 40 breaths/min and 4.0 cm^3 stoke volume. The animals were challenged with a maximal constrictory dose of histamine (50 μg/kg, i.v.) and tracheal pressure (cm of water) was recorded from a Statham pressure transducer (P 32 AA).
The change in tracheal pressure was averaged for at least 3 control and 3 drug-treated animals and percent inhibition was calculated. The relative potency of compounds administered by the instillation route was determined by administering various doses of test compound and calculating the median inhibitory dose (ID50 value). The ID50 was determined from log dose-reasons curves generated by at least 3 doses that caused inhibitory effects between 10% and 90%. The correlation coefficient for the regression line of each antagonist was always greater than 0.95.
For determination of the time course of inhibition for various compounds, the time between administration of compound and challenge with histamine was varied. The time course of activity was calculated as the time when inhibition decreased to 40%.

[1] = tested on: guinea pig tracheal smooth muscle; assay: Tracheal relaxant activity of VIP analogs on isolated guinea pig tracheal rings; type: cell-based; details: cumulative concentration response; responses as % of maximum response to VIP (10^-6 M=100%); at least three tissues pooled; linear regression
Method: The relaxant activity of the VIP analogs was studied in a model utilizing guinea pig trachea. [Wasserman, M. A. et al., in Vasoactive Intestinal Peptide, S. I. Said, ed., Raven Press, N.Y. 1982, pp 177-184]; All tissues were taken from male albino guinea pig weighing 400-600 g, anesthesized with urethane (2 g/kg, i.p.). After exanguination, the trachea were removed and divided into four ring segments (3 mm length). Each ring was suspended by 30 gauge stainless steel wires in a 10 mL jacketed tissue bath and attached via 4-0 silk thread to a Grass force displacement transducer (model FT03C, Grass Instruments Co., Quincy, Ma), for isometric recording of tension. The smooth muscle was bathed in modified Krebs solution of the following composition: NaCl, 120 mM; KCl, 4.7 mM; CaCl2, 2.5 mM; MgSO.4 7H2 O, 1.2 mM; NaHCO3, 25 mM; K2 HPO4 monobasic, 1.2 mM; and dextrose, 10 mM. Tissue baths were maintained at 37° C. and constantly bubbled with 95% O2 and 5% CO2. Responses were recorded on an 8 channel and a 4 channel Hewlett-Packard (model 7702B and 7754A, respectively) recorder (Hewlett-Packard, Paramus, N.J.). […] Frequent readjustments of tension were required during the 60 minute stabilization period which followed. Tissues were rinsed at 15 minute intervals.
Cumulative concentration response curves were obtained for each tissue by successive […] increases in the bath concentration of VIP or VIP analogs according to the method of VanRossum [Arch. Int. Pharmacodyn., 143, 299-330 (1963)]. Only one cumulative dose response curve was obtained on a single tissue. To minimize variability between tissues, relaxant responses were expressed as a percentage of the maximum response obtained to VIP (10^-6 M=100%) added at the end of each concentration response experiment. Responses obtained from at least three tissues were pooled and EC50 values were determined by linear regression.

Row | Substance | Bronchodilator activity in guinea pigs, ED50 (guinea pigs) | EC50 [1]
1 | Ac--[p-NH2 --Phe^10, Lys^12, Nle^17, Val^26, Thr^28 ]--VIP (Ac-HSDAVFTDN[Phe(4-NH2)]TKLRKQ[Nle]AVKKYLNSVLT-NH2; SMILES CCCC[C@H](NC(=O)[C@H](CCC(N)=O)NC(=O)[C@H](CCCCN)NC(=O)[C@H](CCCNC(=N)N)NC(=O)[C@H](CC(C)C)NC(=O)[C@H](CCCCN)NC(=O)[C@@H](NC(=O)[C@H](Cc1ccc(N)cc1)NC(=O)[C@H](CC(N)=O)NC(=O)[C@H](CC(=O)O)NC(=O)[C@@H](NC(=O)[C@H](Cc1ccccc1)NC(=O)[C@@H](NC(=O)[C@H](C)NC(=O)[C@H](CC(=O)O)NC(=O)[C@H](CO)NC(=O)[C@H](Cc1c[nH]cn1)NC(C)=O)C(C)C)[C@@H](C)O)[C@@H](C)O)C(=O)N[C@@H](C)C(=O)N[C@H](C(=O)N[C@@H](CCCCN)C(=O)N[C@@H](CCCCN)C(=O)N[C@@H](Cc1ccc(O)cc1)C(=O)N[C@@H](CC(C)C)C(=O)N[C@@H](CC(N)=O)C(=O)N[C@@H](CO)C(=O)N[C@H](C(=O)N[C@@H](CC(C)C)C(=O)N[C@H](C(N)=O)[C@@H](C)O)C(C)C)C(C)C) [Ac--(SEQ ID NO: 54)--NH2] | 2.0 µg | 0.36 nM
2 | Ac--[Ala^2, Lys^12, Nle^17, Ala^25, Leu^26, Lys^27,28, Gly^29,30, Thr^31 ]--VIP (Ac-HADAVFTDNYTKLRKQ[Nle]AVKKYLNALKKGGT-NH2; SMILES CCCC[C@H](NC(=O)[C@H](CCC(N)=O)NC(=O)[C@H](CCCCN)NC(=O)[C@H](CCCNC(=N)N)NC(=O)[C@H](CC(C)C)NC(=O)[C@H](CCCCN)NC(=O)[C@@H](NC(=O)[C@H](Cc1ccc(O)cc1)NC(=O)[C@H](CC(N)=O)NC(=O)[C@H](CC(=O)O)NC(=O)[C@@H](NC(=O)[C@H](Cc1ccccc1)NC(=O)[C@@H](NC(=O)[C@H](C)NC(=O)[C@H](CC(=O)O)NC(=O)[C@H](C)NC(=O)[C@H](Cc1c[nH]cn1)NC(C)=O)C(C)C)[C@@H](C)O)[C@@H](C)O)C(=O)N[C@@H](C)C(=O)N[C@H](C(=O)N[C@@H](CCCCN)C(=O)N[C@@H](CCCCN)C(=O)N[C@@H](Cc1ccc(O)cc1)C(=O)N[C@@H](CC(C)C)C(=O)N[C@@H](CC(N)=O)C(=O)N[C@@H](C)C(=O)N[C@@H](CC(C)C)C(=O)N[C@@H](CCCCN)C(=O)N[C@@H](CCCCN)C(=O)NCC(=O)NCC(=O)N[C@H](C(N)=O)[C@@H](C)O)C(C)C) [Ac--(SEQ ID NO: 20)--NH2] | 0.05 µg | 0.44 nM
3 | Ac--[p-F--Phe^6, Lys^12, Nle^17, Ala^19, Val^26, Thr^28, Gly^29,30, Cys(Acm)^31 ]--VIP (Ac-HSDAV[Phe(4-F)]TDNYTKLRKQ[Nle]AAKKYLNSVLTGG[Cys(Acm)]-NH2; SMILES CCCC[C@H](NC(=O)[C@H](CCC(N)=O)NC(=O)[C@H](CCCCN)NC(=O)[C@H](CCCNC(=N)N)NC(=O)[C@H](CC(C)C)NC(=O)[C@H](CCCCN)NC(=O)[C@@H](NC(=O)[C@H](Cc1ccc(O)cc1)NC(=O)[C@H](CC(N)=O)NC(=O)[C@H](CC(=O)O)NC(=O)[C@@H](NC(=O)[C@H](Cc1ccc(F)cc1)NC(=O)[C@@H](NC(=O)[C@H](C)NC(=O)[C@H](CC(=O)O)NC(=O)[C@H](CO)NC(=O)[C@H](Cc1c[nH]cn1)NC(C)=O)C(C)C)[C@@H](C)O)[C@@H](C)O)C(=O)N[C@@H](C)C(=O)N[C@@H](C)C(=O)N[C@@H](CCCCN)C(=O)N[C@@H](CCCCN)C(=O)N[C@@H](Cc1ccc(O)cc1)C(=O)N[C@@H](CC(C)C)C(=O)N[C@@H](CC(N)=O)C(=O)N[C@@H](CO)C(=O)N[C@H](C(=O)N[C@@H](CC(C)C)C(=O)N[C@H](C(=O)NCC(=O)NCC(=O)N[C@@H](CSCNC(C)=O)C(N)=O)[C@@H](C)O)C(C)C) [Ac--(SEQ ID NO: 76)--NH2] | 017 µg | –
4 | Ac--[N--Me--Ala^1, Lys^12, Nle^17, Val^26, Thr^28 ]--VIP (Ac-[NMeA]SDAVFTDNYTKLRKQ[Nle]AVKKYLNSVLT-NH2; SMILES CCCC[C@H](NC(=O)[C@H](CCC(N)=O)NC(=O)[C@H](CCCCN)NC(=O)[C@H](CCCNC(=N)N)NC(=O)[C@H](CC(C)C)NC(=O)[C@H](CCCCN)NC(=O)[C@@H](NC(=O)[C@H](Cc1ccc(O)cc1)NC(=O)[C@H](CC(N)=O)NC(=O)[C@H](CC(=O)O)NC(=O)[C@@H](NC(=O)[C@H](Cc1ccccc1)NC(=O)[C@@H](NC(=O)[C@H](C)NC(=O)[C@H](CC(=O)O)NC(=O)[C@H](CO)NC(=O)[C@H](C)N(C)C(C)=O)C(C)C)[C@@H](C)O)[C@@H](C)O)C(=O)N[C@@H](C)C(=O)N[C@H](C(=O)N[C@@H](CCCCN)C(=O)N[C@@H](CCCCN)C(=O)N[C@@H](Cc1ccc(O)cc1)C(=O)N[C@@H](CC(C)C)C(=O)N[C@@H](CC(N)=O)C(=O)N[C@@H](CO)C(=O)N[C@H](C(=O)N[C@@H](CC(C)C)C(=O)N[C@H](C(N)=O)[C@@H](C)O)C(C)C)C(C)C) [Ac--(SEQ ID NO: 88)--NH2] | 8.5 µg | 7.2 nM
5 | Ac--[Leu^5, Orn^12, Ala^17,19, Thr^25, Val^26, Thr^28, Gly^29,30, Cys(Acm)^31 ]--VIP (Ac-HSDALFTDNYT[Orn]LRKQAAAKYLNSTVNTGGC(Acm)-NH2; SMILES CC(=O)NCSC[C@H](NC(=O)CNC(=O)CNC(=O)[C@@H](NC(=O)[C@H](CC(N)=O)NC(=O)[C@@H](NC(=O)[C@@H](NC(=O)[C@H](CO)NC(=O)[C@H](CC(N)=O)NC(=O)[C@H](CC(C)C)NC(=O)[C@H](Cc1ccc(O)cc1)NC(=O)[C@H](CCCCN)NC(=O)[C@H](C)NC(=O)[C@H](C)NC(=O)[C@H](C)NC(=O)[C@H](CCC(N)=O)NC(=O)[C@H](CCCCN)NC(=O)[C@H](CCCNC(=N)N)NC(=O)[C@H](CC(C)C)NC(=O)[C@H](CCCN)NC(=O)[C@@H](NC(=O)[C@H](Cc1ccc(O)cc1)NC(=O)[C@H](CC(N)=O)NC(=O)[C@H](CC(=O)O)NC(=O)[C@@H](NC(=O)[C@H](Cc1ccccc1)NC(=O)[C@H](CC(C)C)NC(=O)[C@H](C)NC(=O)[C@H](CC(=O)O)NC(=O)[C@H](CO)NC(=O)[C@H](Cc1c[nH]cn1)NC(C)=O)[C@@H](C)O)[C@@H](C)O)[C@@H](C)O)C(C)C)[C@@H](C)O)C(N)=O) [Ac--(SEQ ID NO: 8)--NH2] | 0.28 µg | –
6 | Ac--[Glu^8, Lys^12, Nle^17, Val^26, Thr^28, Gly^29,30, Met^31 ]--VIP (Ac-HSDAVFTENYTKLRKQ[Nle]AVKKYLNSVLTGGM-NH2; SMILES CCCC[C@H](NC(=O)[C@H](CCC(N)=O)NC(=O)[C@H](CCCCN)NC(=O)[C@H](CCCNC(=N)N)NC(=O)[C@H](CC(C)C)NC(=O)[C@H](CCCCN)NC(=O)[C@@H](NC(=O)[C@H](Cc1ccc(O)cc1)NC(=O)[C@H](CC(N)=O)NC(=O)[C@H](CCC(=O)O)NC(=O)[C@@H](NC(=O)[C@H](Cc1ccccc1)NC(=O)[C@@H](NC(=O)[C@H](C)NC(=O)[C@H](CC(=O)O)NC(=O)[C@H](CO)NC(=O)[C@H](Cc1c[nH]cn1)NC(C)=O)C(C)C)[C@@H](C)O)[C@@H](C)O)C(=O)N[C@@H](C)C(=O)N[C@H](C(=O)N[C@@H](CCCCN)C(=O)N[C@@H](CCCCN)C(=O)N[C@@H](Cc1ccc(O)cc1)C(=O)N[C@@H](CC(C)C)C(=O)N[C@@H](CC(N)=O)C(=O)N[C@@H](CO)C(=O)N[C@H](C(=O)N[C@@H](CC(C)C)C(=O)N[C@H](C(=O)NCC(=O)NCC(=O)N[C@@H](CCSC)C(N)=O)[C@@H](C)O)C(C)C)C(C)C) [Ac--(SEQ ID NO: 9)--NH2] | 1.7 µg | –
